In patent publication US8569336B2, “Compounds for the treatment of inflammatory disorders” (priority 2008, dated 2013):
Like-named read-outs stand apart in the source and are kept apart here.

Key:
[1] = tested on: TNF-α production from human whole blood; assay: Inhibition of TNF-α production from human whole blood (hWBA), LPS stimulated, ELISA; assay type: cell-based; settings: Homo sapiens, 3.5 h, human whole blood diluted 1:1, LPS stimulated, 3.5 h, TNF-α by ELISA; read-out: hWBA (IC50)
[2] = Area under the curve determinations of plasma levels in rats (rrAUC), oral 10 mg/kg; assay type: in vivo; settings: rat, plasma 0.5-6 h post-dosing, read-out: RR AUC (rapid rat AUC, rrAUC)
[3] = target: T1, purified catalytic domain of recombinant human TACE (rhTACEc) (Homo sapiens, UniProt P78536, N452Q/S266A); assay: TACE kinetic assay: cleavage of internally quenched peptide substrate TNF-FRET 2 (Ki); assay type: biochemical; settings: TNF-FRET 2 substrate
T1 construct: 6xHis (C); made in house; host or cells: baculovirus/Hi5 insect cells
T1 sequence (P78536 215-477 S266A/N452Q): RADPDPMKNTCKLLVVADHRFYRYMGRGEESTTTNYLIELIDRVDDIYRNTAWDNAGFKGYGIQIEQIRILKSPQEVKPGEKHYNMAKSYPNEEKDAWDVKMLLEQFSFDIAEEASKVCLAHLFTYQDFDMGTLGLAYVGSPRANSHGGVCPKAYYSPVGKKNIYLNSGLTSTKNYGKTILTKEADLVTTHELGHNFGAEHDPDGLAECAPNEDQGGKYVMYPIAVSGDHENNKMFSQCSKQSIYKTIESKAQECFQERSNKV

IC50 [1] [nM] | AUC [2] [µM·h] | Ki ([3]; read-out: Ki) [nM] | SMILES | Ki ([3]; Ki) [nM]
14300 | 127 | 0.527 | COc1ccc2c(c1)C(=O)N(C[C@@]1(c3cc4cnc(-c5ccccc5F)cc4o3)NC(=O)NC1=O)C2 [Compound 2234] | 
553 | 0.018 | 0.384 | COc1ccc2c(c1)C(=O)N(C[C@@]1(c3cc4c(-c5cccnc5)nccc4o3)NC(=O)NC1=O)C2 [Compound 2235] | 
949 | 0.02 | 0.54 | COc1ccc2c(c1)C(=O)N(C[C@@]1(c3cc4c(-c5ccncc5)nccc4o3)NC(=O)NC1=O)C2 [Compound 2236] | 
628 | 4.86 | 0.889 | COc1ccc2c(c1)C(=O)N(C[C@@]1(c3cc4cc(-c5ccncc5)ncc4o3)NC(=O)NC1=O)C2 [Compound 2238] | 
718 | 9.84 | 0.669 | COc1ccc2c(c1)C(=O)N(C[C@@]1(c3cc4cc(-c5cccnc5)ncc4o3)NC(=O)NC1=O)C2 [Compound 2239] | 
3640 | 12.8 | 0.714 | COc1ccc2c(c1)C(=O)N(C[C@@]1(c3cc4cc(-c5ccccc5F)ncc4o3)NC(=O)NC1=O)C2 [Compound 2240] | 
≥ 10000 | 1.39 | 1.19 | COc1ccc2c(c1)C(=O)N(C[C@@]1(c3cc4cc(-c5ccccc5O)ncc4o3)NC(=O)NC1=O)C2 [Compound 2241] | 
753 | 0.027 | 0.427 | COc1ccc2c(c1)C(=O)N(C[C@@]1(c3cc4cc(-c5ccc(O)cc5)ncc4o3)NC(=O)NC1=O)C2 [Compound 2243] | 
1060 | 6.03 | 0.456 | COc1ccc2c(c1)C(=O)N(C[C@@]1(c3cc4cc(-c5ccnc(N)n5)ccc4o3)NC(=O)NC1=O)C2 [Compound 2245] | 
178 | 0.974 | 0.65 | COc1ccc2c(c1)C(=O)N(C[C@@]1(c3cc4ccc(NC(C)=O)nc4o3)NC(=O)NC1=O)C2 [Compound 2249] | 
218 | 0.391 | 0.433 | COc1ccc2c(c1)C(=O)N(C[C@@]1(c3cc4ccc(N)nc4o3)NC(=O)NC1=O)C2 [Compound 2250] | 
1670 | 1.77 | 0.599 | COc1ccc2c(c1)C(=O)N(C[C@@]1(c3cc4cc(-c5cccnc5)cnc4o3)NC(=O)NC1=O)C2 [Compound 2254] | 
396 | 0.527 | 0.523 | COc1ccc2c(c1)C(=O)N(C[C@@]1(c3cc4cc(-c5ccncc5)cnc4o3)NC(=O)NC1=O)C2 [Compound 2255] | 
≥ 1000 | 0.24 | 7.71 | COc1ccc2c(c1)C(=O)N(C[C@@]1(c3cc4c(o3)CCN(C)C4)NC(=O)NC1=O)C2 [Compound 2263] | 
1180 | 0.623 | 0.417 | COc1ccc2c(c1)C(=O)N(C[C@@]1(c3cc4c(o3)CN(C)CC4)NC(=O)NC1=O)C2 [Compound 2264] | 
1040 | 0.278 | 5.27 | COCCN1CCc2oc([C@]3(CN4Cc5ccc(OC)cc5C4=O)NC(=O)NC3=O)cc2C1 [Compound 2267] | 

SMILES | IC50 [1] [nM] | AUC [2] [µM·h] | Ki ([3]; read-out: Ki) [nM] | Ki ([3]; Ki) [nM]
COc1ccc2c(c1)C(=O)N(C[C@@]1(c3cc4cc(-c5cc(N)n(C)n5)ccc4o3)NC(=O)NC1=O)C2 [Compound 2247] | 782 | 0.375 |  | 0.333
COc1ccc2c(c1)C(=O)N(C[C@@]1(c3cc4cnc(N5CCNC5=O)cc4o3)NC(=O)NC1=O)C2 [Compound 2252] | 206 | 1.18 |  | 1.79
COc1ccc2c(c1)C(=O)N(C[C@@]1(c3cc4c(C)nc(C)cc4o3)NC(=O)NC1=O)C2 [Compound 2257] | 676 | 4.23 | 0.53 | 
COc1ccc2c(c1)C(=O)N(C[C@@]1(c3cc4cnc(C)cc4o3)NC(=O)NC1=O)C2 [Compound 2258] | 345 | 19.1 | 0.366 | 
COc1ccc2c(c1)C(=O)N(C[C@@]1(c3cc4cnc(C(F)(F)F)cc4o3)NC(=O)NC1=O)C2 [Compound 2269] | 1620 | 19.3 |  | 0.497
